# Test results reported in the supplement of paper PMC10307832.
# Tests used:
# Experiment in all cases: relative viability (nuclei count vs DMSO), 5 days (fraction); higher = more cells survive
# 201T = tested on: 201T
# Procedure, shortened: (§1)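 Medians of duplicate plates are given as relative viability. That measure is the nuclei count in treated wells divided by the count in vehicle wells. Counts were taken on 4× images of lung cancer cell lines in 1536-well plates, 5 days after pin-tool dosing the day after seeding with one drug alone or a fixed anchor-drug dose plus five library-drug doses (not always all listed) in √10 steps.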
# A-427 = tested on: A-427
# Procedure, shortened: as §1
# ABC-1 = tested on: ABC-1
# Procedure, shortened: as §1
# BEN = tested on: BEN
# Procedure, shortened: as §1
# CAL-12T = tested on: CAL-12T
# Procedure, shortened: as §1
# H3255 = tested on: H3255
# Procedure, shortened: as §1
# LC-2-ad = tested on: LC-2-ad
# Procedure, shortened: as §1
# LCLC-97TM1 = tested on: LCLC-97TM1
# Procedure, shortened: as §1
# NCI-H1650 = tested on: NCI-H1650
# Procedure, shortened: as §1
# NCI-H1651 = tested on: NCI-H1651
# Procedure, shortened: as §1
# NCI-H1915 = tested on: NCI-H1915
# Procedure, shortened: as §1
# NCI-H1944 = tested on: NCI-H1944
# Procedure, shortened: as §1
# NCI-H2023 = tested on: NCI-H2023
# Procedure, shortened: as §1
# NCI-H2087 = tested on: NCI-H2087
# Procedure, shortened: as §1
# NCI-H441 = tested on: NCI-H441
# Procedure, shortened: as §1
# NCI-H460 = tested on: NCI-H460
# Procedure, shortened: as §1
# NCI-H520 = tested on: NCI-H520
# Procedure, shortened: as §1
# NCI-H596 = tested on: NCI-H596
# Procedure, shortened: as §1
# NCI-H650 = tested on: NCI-H650
# Procedure, shortened: as §1
# NCI-H661 = tested on: NCI-H661
# Procedure, shortened: as §1
# NCI-H727 = tested on: NCI-H727
# Procedure, shortened: as §1
# PC-3 [JPC-3] = tested on: PC-3 [JPC-3]
# Procedure, shortened: as §1
smiles,measurement,setting,value
O=c1cc(-c2cccc3c2Sc2ccccc2S3)oc(N2CCOCC2)c1 + N=C(N)NC(=N)NCCc1ccccc1 [Phenformin] (partner 250 µM),relative viability,201T; first compound 0.08 µM,0.445
same,relative viability,201T; first compound 0.253 µM,0.545
same,relative viability,201T; first compound 0.8 µM,0.423
same,relative viability,201T; first compound 2.53 µM,0.427
same,relative viability,201T; first compound 8 µM,0.498
same,relative viability,A-427; first compound 0.08 µM,0.282
same,relative viability,A-427; first compound 0.253 µM,0.313
same,relative viability,A-427; first compound 0.8 µM,0.376
same,relative viability,A-427; first compound 8 µM,0.35
same,relative viability,ABC-1; first compound 0.08 µM,0.228
same,relative viability,ABC-1; first compound 0.253 µM,0.23
same,relative viability,ABC-1; first compound 0.8 µM,0.23
same,relative viability,ABC-1; first compound 2.53 µM,0.234
same,relative viability,ABC-1; first compound 8 µM,0.277
same,relative viability,BEN; first compound 0.08 µM,0.258
same,relative viability,BEN; first compound 0.253 µM,0.306
same,relative viability,BEN; first compound 0.8 µM,0.248
same,relative viability,BEN; first compound 2.53 µM,0.217
same,relative viability,BEN; first compound 8 µM,0.3
same,relative viability,CAL-12T; first compound 0.08 µM,0.534
same,relative viability,CAL-12T; first compound 0.253 µM,0.603
same,relative viability,CAL-12T; first compound 0.8 µM,0.597
same,relative viability,CAL-12T; first compound 2.53 µM,0.514
same,relative viability,CAL-12T; first compound 8 µM,0.487
same,relative viability,H3255; first compound 0.08 µM,0.323
same,relative viability,H3255; first compound 0.253 µM,0.393
same,relative viability,H3255; first compound 0.8 µM,0.339
same,relative viability,H3255; first compound 2.53 µM,0.338
same,relative viability,H3255; first compound 8 µM,0.39
same,relative viability,LC-2-ad; first compound 0.08 µM,0.557
same,relative viability,LC-2-ad; first compound 0.253 µM,0.576
same,relative viability,LC-2-ad; first compound 0.8 µM,0.645
same,relative viability,LC-2-ad; first compound 2.53 µM,0.558
same,relative viability,LC-2-ad; first compound 8 µM,0.592
same,relative viability,LCLC-97TM1; first compound 0.08 µM,0.403
same,relative viability,LCLC-97TM1; first compound 0.253 µM,0.361
same,relative viability,LCLC-97TM1; first compound 0.8 µM,0.475
same,relative viability,LCLC-97TM1; first compound 2.53 µM,0.418
same,relative viability,LCLC-97TM1; first compound 8 µM,0.496
same,relative viability,NCI-H1650; first compound 0.08 µM,0.379
same,relative viability,NCI-H1650; first compound 0.253 µM,0.561
same,relative viability,NCI-H1650; first compound 0.8 µM,0.434
same,relative viability,NCI-H1650; first compound 2.53 µM,0.263
same,relative viability,NCI-H1650; first compound 8 µM,0.365
same,relative viability,NCI-H1651; first compound 0.08 µM,0.342
same,relative viability,NCI-H1651; first compound 0.253 µM,0.526
same,relative viability,NCI-H1651; first compound 0.8 µM,0.423
same,relative viability,NCI-H1651; first compound 2.53 µM,0.362
same,relative viability,NCI-H1651; first compound 8 µM,0.299
same,relative viability,NCI-H1915; first compound 0.08 µM,0.37
same,relative viability,NCI-H1915; first compound 0.253 µM,0.4
same,relative viability,NCI-H1915; first compound 0.8 µM,0.436
same,relative viability,NCI-H1915; first compound 2.53 µM,0.355
same,relative viability,NCI-H1915; first compound 8 µM,0.406
same,relative viability,NCI-H1944; first compound 0.08 µM,0.192
same,relative viability,NCI-H1944; first compound 0.253 µM,0.21
same,relative viability,NCI-H1944; first compound 0.8 µM,0.186
same,relative viability,NCI-H1944; first compound 2.53 µM,0.168
same,relative viability,NCI-H1944; first compound 8 µM,0.22
same,relative viability,NCI-H2023; first compound 0.08 µM,0.401
same,relative viability,NCI-H2023; first compound 0.253 µM,0.484
same,relative viability,NCI-H2023; first compound 0.8 µM,0.476
same,relative viability,NCI-H2023; first compound 2.53 µM,0.362
same,relative viability,NCI-H2023; first compound 8 µM,0.44
same,relative viability,NCI-H2087; first compound 0.08 µM,0.47
same,relative viability,NCI-H2087; first compound 0.253 µM,0.623
same,relative viability,NCI-H2087; first compound 0.8 µM,0.527
same,relative viability,NCI-H2087; first compound 2.53 µM,0.398
same,relative viability,NCI-H2087; first compound 8 µM,0.462
same,relative viability,NCI-H441; first compound 0.08 µM,0.854
same,relative viability,NCI-H441; first compound 0.253 µM,1.2
same,relative viability,NCI-H441; first compound 0.8 µM,0.895
same,relative viability,NCI-H441; first compound 2.53 µM,0.903
same,relative viability,NCI-H441; first compound 8 µM,0.904
same,relative viability,NCI-H460; first compound 0.08 µM,0.535
same,relative viability,NCI-H460; first compound 0.253 µM,0.549
same,relative viability,NCI-H460; first compound 0.8 µM,0.571
same,relative viability,NCI-H460; first compound 2.53 µM,0.525
same,relative viability,NCI-H460; first compound 8 µM,0.531
same,relative viability,NCI-H520; first compound 0.08 µM,0.505
same,relative viability,NCI-H520; first compound 0.253 µM,0.507
same,relative viability,NCI-H520; first compound 0.8 µM,0.479
same,relative viability,NCI-H520; first compound 2.53 µM,0.372
same,relative viability,NCI-H520; first compound 8 µM,0.619
same,relative viability,NCI-H596; first compound 0.08 µM,0.808
same,relative viability,NCI-H596; first compound 0.253 µM,0.812
same,relative viability,NCI-H596; first compound 0.8 µM,0.921
same,relative viability,NCI-H596; first compound 2.53 µM,0.756
same,relative viability,NCI-H596; first compound 8 µM,0.887
same,relative viability,NCI-H650; first compound 0.08 µM,0.386
same,relative viability,NCI-H650; first compound 0.253 µM,0.437
same,relative viability,NCI-H650; first compound 0.8 µM,0.461
same,relative viability,NCI-H650; first compound 8 µM,0.452
same,relative viability,NCI-H661; first compound 0.08 µM,0.269
same,relative viability,NCI-H661; first compound 0.253 µM,0.26
same,relative viability,NCI-H661; first compound 0.8 µM,0.271
same,relative viability,NCI-H661; first compound 2.53 µM,0.267
same,relative viability,NCI-H661; first compound 8 µM,0.259
same,relative viability,NCI-H727; first compound 0.08 µM,0.503
same,relative viability,NCI-H727; first compound 0.253 µM,0.591
same,relative viability,NCI-H727; first compound 0.8 µM,0.411
same,relative viability,NCI-H727; first compound 2.53 µM,0.571
same,relative viability,NCI-H727; first compound 8 µM,0.525
same,relative viability,PC-3 [JPC-3]; first compound 0.08 µM,0.473
same,relative viability,PC-3 [JPC-3]; first compound 0.253 µM,0.458
same,relative viability,PC-3 [JPC-3]; first compound 0.8 µM,0.514
same,relative viability,PC-3 [JPC-3]; first compound 2.53 µM,0.448
same,relative viability,PC-3 [JPC-3]; first compound 8 µM,0.495
